Assay results taken from patent US11547683B2, “Therapeutic compounds, formulations, and uses thereof” (Tvardi Therapeutics, Inc., priority 2020, dated 2023).

Experiment: Studies on oxidation of the compound of Formula (I)
Assay type: physicochemical
Protocol: Stability was analyzed using a variety of antioxidants. A bulk formulation containing Kolliphor® RH 40, PEG600, Polysorbate 80, Labrasol®, and Transcutol® HP (45:15:10:20:10 by weight) was prepared with a compound of Formula (I) concentration of 60 mg/g. Antioxidants, including Vitamin E (0.05 wt %), ascorbyl palmitate (0.05 wt %), butylated hydroxytoluene (0.005 wt %), and triethyl citrate (0.7 wt %) were dissolved/dispersed in the bulk formulation, respectively. The resulting samples were placed at room temperature in glass vials and protected from light. The samples were monitored for purity by HPLC at 0, 3, and 8 weeks.

- susceptibility to oxidation: susceptible to oxidation
Compound: COc1ccc(S(=O)(=O)Nc2cc(-c3c(O)ccc4ccccc34)c(O)c3ccccc23)cc1 [Compound of Formula (I)]
